Like-named read-outs stand apart in the source and are kept apart here.
Key:
CV-B3 Nancy strain = test: CPE protection assay, CV-B3; assay type: cell-based, Coxsackievirus B3; conditions: Enterovirus B, CVB3, CV-B3 Nancy, RD
[1] = Cytotoxicity, CellTiter-Glo cell viability, Huh7 cells; assay type: cell-based; conditions: human, read-out: half-cytotoxic concentration (CC50)
Huh7 cells = test: as above; assay type: cell-based
EV-A71 virus VP1 protein [2] = test: Western blot of VP1; assay type: cell-based, enterovirus A71; conditions: RD cells, 24 h; dose-dependent; EIDD-1931 10 to 0.63 μM, EIDD-2801 100 to 6.3 μM
EV-A71 H strain [3] = test: CPE protection assay, EV-A71 H strain (CellTiter-Glo); assay type: cell-based; conditions: Enterovirus A, 100× TCID50, 72 h.p.i., read-out: EC50 against EV-A71 virus
EV-A71 virus (H strain) [4] = test: Lethal EV-A71 challenge of 1-day-old ICR suckling mice: survival and body weight; assay type: in vivo
[5] = test system: EV-D68 STL-2014–12 strain; test: CPE protection assay, EV-D68; assay type: cell-based; conditions: Enterovirus D, EVD68, EV-D68 STL-2014–12, RD
CV-A16 190-D1 strain = test: CPE protection assay, CV-A16; assay type: cell-based, coxsackievirus A16; conditions: Enterovirus A, CVA16, CV-A16 190-D1, RD
EV-A71 AH08/06 strain = test: CPE protection assay, EV-A71 clinical isolate AH08/06; assay type: cell-based; conditions: Enterovirus A, EVA71, Huh-7; EV-A71 AH08/06, Huh7
EV-A71 virus (H strain) [6] = test: Viral RNA loads in tissues of EV-A71-infected suckling mice (qRT-PCR); assay type: in vivo; conditions: 200 mg/kg i.p. for 4 consecutive days
EV-A71 virus [7] = test: Virus particle yield in supernatant (TCID50); assay type: cell-based, enterovirus A71; conditions: RD cells, MOI 0.1, supernatant, 30 h.p.i.
[8] = in vivo, po, 800 mg; cited from earlier work
[9] = test system: CV-A6 TW-2007-00141 strain; test: CPE protection assay, CV-A6; assay type: cell-based, coxsackievirus A6
[10] = Cytotoxicity, CellTiter-Glo cell viability, Vero cells; assay type: cell-based; conditions: African green monkey, read-out: half-cytotoxic concentration (CC50)
Vero cells = test: as above; assay type: cell-based
EV-A71 virus VP1 protein [11] = test: Immunofluorescence assay of VP1; assay type: cell-based, enterovirus A71; conditions: MOI 1, 16 h.p.i.
[12] = Cytotoxicity, CellTiter-Glo cell viability, RD cells; assay type: cell-based, Human; conditions: human, read-out: half-cytotoxic concentration (CC50)
RD cells = test: as above; assay type: cell-based, Human
EV-A71 virus [13] = test: Viral RNA reduction assay (qRT-PCR) in RD cells; assay type: cell-based, enterovirus A71; conditions: MOI 0.1, 30 h.p.i.
EV-A71 H strain [14] = test: Time-of-drug-addition assay (qRT-PCR); assay type: cell-based, enterovirus A71; conditions: RD cells, 10 μM, MOI 0.01, 30 h.p.i.
EV-A71 = test system: EV-A71; design: method as in earlier work; conditions: cited from earlier work
[15] = 66.6 mg/kg (66.67 printed for EIDD-2801) i.p. once a day for 7 days, until 21 d.p.i.
[16] = 200 mg/kg i.p. once a day for 7 days, observed until 21 d.p.i.
[17] = Enterovirus A, CVA6, CV-A6 TW-2007-00141, RD

Row | Compound | CC50 at 72 h [1] [µM] | expression levels of viral VP1 proteins (Western blot) (EV-A71 virus VP1 protein [2]) | EC50 (EV-A71 H strain [3]; EVA71, Huh-7, Huh7 cells) [µM] | EC50 (EV-A71 H strain [3]; EVA71, RD cells) [µM] | EC50 (EV-A71 H strain [3]; EVA71, Vero cells) [µM] | survival (EV-A71 virus (H strain) [4]; [15]) | survival (EV-A71 virus (H strain) [4]; [16]) | EC50 (EV-A71 AH08/06 strain) [µM] | viral RNA loads in brain, heart, intestine, liver, limb muscle and lung (EV-A71 virus (H strain) [6]) | propagation of infectious viral particles (EV-A71 virus [7]) | EC50 [9, 17] [µM] | CC50 at 72 h [10] [µM] | CC50 at 72 h [12] [µM] | replication of viral RNA (qRT-PCR) (EV-A71 virus [13]) | other results
1 | CC(C)C(=O)OC[C@H]1O[C@@H](n2ccc(NO)nc2=O)[C@H](O)[C@@H]1O [EIDD-2801, molnupiravir] | > 100 | significantly attenuated | 35.6 ± 0.47 | 70.1 ± 4.4 | 88.5 ± 3.18 | 67% | 100% | 30.3 ± 0.55 | significantly reduced | inhibited | > 100 | > 100 | > 100 | inhibited the replication of viral RNA in a dose-dependent manner | EC50 (CV-B3 Nancy strain): 87.2 ± 10.8 µM; half-cytotoxic concentration (CC50) (Huh7 cells): no significant cytotoxicity; EC50 [5]: 86.2 ± 9.17 µM; EC50 (CV-A16 190-D1 strain): 44.9 ± 4.23 µM; Cmax [8]: 16.1 µM; half-cytotoxic concentration (CC50) (Vero cells): no significant cytotoxicity; expression of EV-A71 VP1 protein (immunofluorescence) (EV-A71 virus VP1 protein [11]; 100 µM): partly inhibited; half-cytotoxic concentration (CC50) (RD cells): no significant cytotoxicity
2 | O=c1[nH]c(=NO)ccn1[C@@H]1O[C@H](CO)[C@@H](O)[C@H]1O [EIDD-1931, β-D-N^4-hydroxycytidine] | 34.09 ± 0.06 | significantly attenuated | 4.43 ± 0.33 | 5.13 ± 0.56 | 7.04 ± 0.38 | all survived | all survived | 2.79 ± 0.89 | significantly reduced | inhibited | < 20 | 14.1 ± 0.43 | 80.47 ± 0.02 | inhibited the replication of viral RNA in a dose-dependent manner | survival protection (EV-A71 virus (H strain) [4]; 22.2 mg/kg i.p. once a day for 7 days, until 21 d.p.i.): 60%; body weight (EV-A71 virus (H strain) [4]; 66.6 mg/kg i.p. for 7 days, until 21 d.p.i.): good weight maintenance and growth; body weight (EV-A71 virus (H strain) [4]; 200 mg/kg i.p. for 7 days, until 21 d.p.i.): good weight maintenance and growth; time within which the mice died (EV-A71 virus (H strain) [4]; low-dose group 7.41 mg/kg i.p. once a day for 7 days): ≤ 12 days; EV-A71 viral RNA production, drug added at stages III and IV (post-entry) (EV-A71 H strain [14]): inhibited; EC50 ([9]; CV-A6 TW-2007-00141, RD): 15.7 ± 0.38 µM; expression of EV-A71 VP1 protein (immunofluorescence) (EV-A71 virus VP1 protein [11]; 10 µM): almost completely blocked
3 | C#C[C@@]1(O)[C@H](O)[C@@H](CO)O[C@H]1n1ccc2c(N)ncnc21 [NITD008, 7-Deaza-2′-C-acetylene-adenosine] |  |  |  |  |  |  |  |  |  |  |  |  |  |  | anti-EV-A71 activity (EV-A71): potent anti-EV-A71 activity

From publication PMC9227765 (Viruses, 2022)
